Drawing on PubChem BioAssay (NCI), this text covers TGI for one compound.

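Test compounds were applied to cells in 96-well plates for 48 hours at 5 doses. TGI: total growth inhibition.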 A value given as a limit tells only on which side of the number the result lay.

Holding throughout (test): NCI tumour cell line growth inhibition, 48 h
Test [1] relates to P388 leukemia.
Test [2] concerns P388/ADR leukemia.
Test [3] concerns RXF-631 renal.

Turning to `O=P1(N(CCCl)CCCl)NCCCO1` (stereo not drawn), the results for the TGI in test [1], in test [2] and in test [3] were > 250 µM, > 229 µM and > 250 µM, respectively.
